{"source": "patent US20130109751A1", "about": "“LSD-1 ENZYME INHIBITORS FOR INDUCING OSTEOGENIC DIFFERENTIATION” ([…].R.L., priority 2011, published 2013)", "type_in_all_cases": "cell-based, mice", "key": {"W20-17 cells [1]": {"system": "W20-17 cells", "assay": "Alizarin Red staining of mineralised nodules under different growth conditions (minimum medium)", "conditions": "21 days, absence of dexamethasone and ascorbic acid, glycerol 2-phosphate necessary", "protocol": "On the 21st day, the presence of mineralised matrix was evaluated by histochemical staining with Alizarin Red. The cells were washed with PBS, fixed with a 10% formaldehyde solution, and incubated with a 2% solution of Alizarin Red (pH 4.1-4.3) for one hour.\nTo evaluate the minimum composition of a medium capable of inducing the formation of mineralised matrix, W20-17 cells were seeded in a 96-well plate and cultured for 21 days under different growth conditions.\nAt the end of the treatment the cells were stained with Alizarin Red, as described in example 2, to evaluate the formation of mineralised nodules."}, "LSD-1": {"target": "T1, LSD-1 (Mus musculus, UniProt Q6ZQ88)", "T1 construct": "endogenous in cells; host or cells: W20-17 cells", "assay": "In vitro enzymatic activity assay of LSD-1 on W20-17 cells", "conditions": "osteogenic medium supplemented with compound, vs osteogenic medium", "protocol": "To evaluate whether the activity of enzyme LSD-1 is inhibited during osteogenic differentiation, an in vitro enzymatic activity assay was performed on W20-17 cells to assess the percentage inhibition of LSD-1 activity under different conditions."}, "W20-17 cells [2]": {"system": "W20-17 cells", "assay": "Expression profile of osteogenic markers by real-time PCR", "conditions": "osteogenic medium, 21 days' treatment, normalised to GAPDH, vs osteogenic medium alone"}}, "data": [{"smiles": "N[C@@H]1C[C@H]1c1ccccc1", "note": "(racemic) [tranylcypromine, reference compound]", "values": [{"measurement": "mineralisation (Alizarin Red, mineralised nodules)", "setting": "W20-17 cells [1]", "value": "promotes mineralisation"}]}, {"smiles": "NC1CC1c1ccc(NC(=O)C(Cc2ccccc2)NC(=O)OCc2ccccc2)cc1", "note": "(stereo not shown) [MC2580]", "values": [{"measurement": "percentage inhibition of LSD-1 activity", "setting": "LSD-1", "value": "percentage inhibition increases"}, {"measurement": "expression of late marker osteocalcin", "setting": "W20-17 cells [2]", "value": "most marked"}, {"measurement": "mineralisation (Alizarin Red, mineralised nodules)", "setting": "W20-17 cells [1]", "value": "promotes mineralisation"}]}]}
